Laboratory results from patent publication US11607422B2, “Uttroside B and derivatives thereof as therapeutics for hepatocellular carcinoma” (Rajiv Gandhi Centre for Biotechnology, an Autonomous …, priority 2016, dated 2023).

Columns and labels:
[1] = tested on: HepG2 cells; experiment: Autophagy flux assay using PtfLC3 (GFP-RFP-LC3) reporter protein; type: cell-based, human; conditions: 500 nM, 24 h, transfected HepG2
Description: The development of a new vector called ptf-LC3B leading to the expression of a double-tagged GFP-RFP-LC3B protein has helped in the study of autophagy flux and this recombinant protein allows to distinguish between autophagosomes (in yellow) and autophagolysosomes (in red).^33 The pGFP-mRFP-LC3B (ptf-LC3) vector was purchased from Addgene (21074). Briefly, plasmid present in the bacterial pellet was isolated according to manufacturer's instruction (GenElute™ Plasmid Miniprep Kit-Sigma-Aldrich). HepG2 cells were transfected transiently with tandem repeats of GFP-RFP tagged LC3 (ptfLC3) using the Lipofectamine LTX and Plus Reagent Kit (Invitrogen, USA) according to manufacturer's protocol. Briefly, PtfLC3 vector Opti-MEM transfection medium (Solution A) was mixed with Lipofectamine reagent dissolved in Opti-MEM transfection medium (Solution B) and incubated for 45 min at room temperature. […]
Quantitative analysis of autophagy flux using tandem GFP-RFP LC3 reporter protein. […] FIG. 29 is a bar diagram showing the quantitative analysis of autophagy induced by Uttroside B in HepG2 cells. HepG2 cells were transfected transiently with plasmid encoding GFP-RFP-LC3 as described previously and the punctae observed were counted and plotted as a histogram. The next attempt was to verify and quantitate the autophagic flux induced by Uttroside B using a tandem GFP-RFP LC3 reporter protein. […]

[2] = tested on: NF-κB in HepG2 cells; experiment: Electrophoretic mobility shift assay of NF-κB; type: cell-based, human; conditions: HepG2 nuclear extract, EMSA
Protocol: Stocks of crude extracts and isolated compound of S. nigrum was prepared in DMSO for the in vitro studies and stored at −20° C. The DMSO concentration in all studies, including controls, was ≤0.2%. Cell viability assay was performed after 72 h of drug treatment while whole cell lysate preparation and cell cycle analysis were done after 24 h and 48 h of drug treatment. For studying NF-κB and AP-1, Uttroside B was incubated for 2 h before extraction.
Radiolabeling of oligonucleotide probes for electrophoretic mobility shift assay:HepG2 Cells were treated with Uttroside B for two hours, scraped and suspended in 150 μL of lysis buffer (10 mM HEPES(pH 7.9), 10 mM KCl, 0.1 mM EDTA, 0.1 mM EGTA, 1 mM DTT, 0.5 mMphenylmethylsulfonyl fluoride, 2 μg/mL leupeptin, 2 μg/mL aprotinin, 0.5 mg/ml benzamidine) for 30 min, after which 4.5 μl of 10% Nonidet P-40 was added. […]

## C[C@H](CC[C@@]1(O)O[C@H]2C[C@H]3[C@@H]4CC[C@H]5C[C@@H](O[C@@H]6O[C@H](CO)[C@H](O[C@@H]7O[C@H](CO)[C@@H](O)[C@H](O[C@@H]8OC[C@@H](O)[C@H](O)[C@H]8O)[C@H]7O[C@@H]7O[C@H](CO)[C@@H](O)[C@H](O)[C@H]7O)[C@H](O)[C@H]6O)CC[C@]5(C)[C@H]4CC[C@]3(C)[C@H]2[C@@H]1C)CO[C@@H]1O[C@H](CO)[C@@H](O)[C@H](O)[C@H]1O [Uttroside B]
[1]
  GFP-RFP-LC3 puncta: increase in amount of yellow puncta and red puncta
[2]
  constitutive activation of NF-κB: could not produce any significant down-regulation
